Measurements as given in ChEMBL document CHEMBL1201862, “PubChem BioAssay data set” (2004).
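Cultured in 96-well plates, cells were exposed to test compound for 48 hours across five concentrations. GI50: concentration for 50% inhibition of growth.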 Activity calls are given as the source filed them. Cut-off read from the data, not from the text of the source: active = GI50 up to about 1.1 µM and inactive = higher.

Assays:
Assay in all cases: NCI anticancer screen, dose series, 48 h
DMS-114 = system: DMS-114
M19-MEL = system: M19-MEL
HOP-18 = system: HOP-18
OVCAR-4 = system: OVCAR-4
M14 = system: M14
KM-20L2 = system: KM-20L2
NCI-H226 = system: NCI-H226
SN12C = system: SN12C
UACC-62 = system: UACC-62
SF-295 = system: SF-295
DMS-273 = system: DMS-273
HL-60 = system: HL-60
SK-MEL-28 = system: SK-MEL-28
DLD-1 = system: DLD-1
SW-620 = system: SW-620
HT-29 = system: HT-29
U-251 = system: U-251
LOX IMVI = system: LOX IMVI
HCT-116 = system: HCT-116
SNB-75 = system: SNB-75
XF498 = system: XF498
SK-MEL-5 = system: SK-MEL-5
KM12 = system: KM12
SNB-78 = system: SNB-78
SK-OV-3 = system: SK-OV-3
MOLT-4 = system: MOLT-4
NCI-H460 = system: NCI-H460
RPMI-8226 = system: RPMI-8226
SF-268 = system: SF-268
LXFL 529 = system: LXFL 529
HOP-62 = system: HOP-62
OVCAR-3 = system: OVCAR-3
EKVX = system: EKVX
HCC 2998 = system: HCC 2998
NCI-H23 = system: NCI-H23
COLO 205 = system: COLO 205
NCI-H522 = system: NCI-H522
K562 = system: K562
OVCAR-8 = system: OVCAR-8
RXF 393 = system: RXF 393
SF-539 = system: SF-539
IGROV-1 = system: IGROV-1
A549 = system: A549
SNB-19 = system: SNB-19
TK-10 = system: TK-10
786-0 = system: 786-0
CCRF-CEM = system: CCRF-CEM
CAKI-1 = system: CAKI-1
A498 = system: A498
SK-MEL-2 = system: SK-MEL-2
HCT-15 = system: HCT-15
UACC-257 = system: UACC-257
HOP-92 = system: HOP-92
ACHN = system: ACHN
UO-31 = system: UO-31

**Q.** Which GI50 (DMS-114) does the source give for `Cc1cc2c(cc1CO)N1Cc3cc(C)c(CO)cc3N(C2)C1` here?
**A.** > 100 µM (inactive)

**Q.** What about the GI50 (M19-MEL) of the same compound?
**A.** > 100 µM (inactive)

**Q.** And the GI50 (HOP-18)?
**A.** > 100 µM (inactive)

**Q.** What about the GI50 (OVCAR-4) of the same compound?
**A.** > 100 µM (inactive)

**Q.** And the GI50 (M14)?
**A.** > 100 µM (inactive)

**Q.** And the GI50 (KM-20L2)?
**A.** > 100 µM (inactive)

**Q.** What about the GI50 (NCI-H226) of the same compound?
**A.** > 100 µM (inactive)

**Q.** What about the GI50 (SN12C) of the same compound?
**A.** > 100 µM (inactive)

**Q.** And the GI50 (UACC-62)?
**A.** > 100 µM (inactive)

**Q.** What about the GI50 (SF-295) of the same compound?
**A.** > 100 µM (inactive)

**Q.** And the GI50 (DMS-273)?
**A.** > 100 µM (inactive)

**Q.** What about the GI50 (HL-60) of the same compound?
**A.** > 100 µM (inactive)

**Q.** And the GI50 (SK-MEL-28)?
**A.** > 100 µM (inactive)

**Q.** What about the GI50 (DLD-1) of the same compound?
**A.** > 100 µM (inactive)

**Q.** And the GI50 (SW-620)?
**A.** > 100 µM (inactive)

**Q.** What about the GI50 (HT-29) of the same compound?
**A.** > 100 µM (inactive)

**Q.** And the GI50 (U-251)?
**A.** > 100 µM (inactive)

**Q.** What about the GI50 (LOX IMVI) of the same compound?
**A.** > 100 µM (inactive)

**Q.** And the GI50 (HCT-116)?
**A.** > 100 µM (inactive)

**Q.** And the GI50 (SNB-75)?
**A.** > 100 µM (inactive)

**Q.** And the GI50 (XF498)?
**A.** > 100 µM (inactive)

**Q.** What about the GI50 (SK-MEL-5) of the same compound?
**A.** > 100 µM (inactive)

**Q.** And the GI50 (KM12)?
**A.** > 100 µM (inactive)

**Q.** What about the GI50 (SNB-78) of the same compound?
**A.** > 100 µM (inactive)

**Q.** And the GI50 (SK-OV-3)?
**A.** > 100 µM (inactive)

**Q.** What about the GI50 (MOLT-4) of the same compound?
**A.** > 100 µM (inactive)

**Q.** What about the GI50 (NCI-H460) of the same compound?
**A.** > 100 µM (inactive)

**Q.** What about the GI50 (RPMI-8226) of the same compound?
**A.** > 100 µM (inactive)

**Q.** And the GI50 (SF-268)?
**A.** > 100 µM (inactive)

**Q.** And the GI50 (LXFL 529)?
**A.** > 100 µM (inactive)

**Q.** What about the GI50 (HOP-62) of the same compound?
**A.** > 100 µM (inactive)

**Q.** What about the GI50 (OVCAR-3) of the same compound?
**A.** > 100 µM (inactive)

**Q.** And the GI50 (EKVX)?
**A.** > 100 µM (inactive)

**Q.** And the GI50 (HCC 2998)?
**A.** > 100 µM (inactive)

**Q.** What about the GI50 (NCI-H23) of the same compound?
**A.** > 100 µM (inactive)

**Q.** What about the GI50 (COLO 205) of the same compound?
**A.** > 100 µM (inactive)

**Q.** What about the GI50 (NCI-H522) of the same compound?
**A.** > 100 µM (inactive)

**Q.** And the GI50 (K562)?
**A.** > 100 µM (inactive)

**Q.** What about the GI50 (OVCAR-8) of the same compound?
**A.** > 100 µM (inactive)

**Q.** What about the GI50 (RXF 393) of the same compound?
**A.** > 100 µM (inactive)

**Q.** And the GI50 (SF-539)?
**A.** > 100 µM (inactive)

**Q.** What about the GI50 (IGROV-1) of the same compound?
**A.** > 100 µM (inactive)

**Q.** What about the GI50 (A549) of the same compound?
**A.** > 100 µM (inactive)

**Q.** And the GI50 (SNB-19)?
**A.** > 100 µM (inactive)

**Q.** What about the GI50 (TK-10) of the same compound?
**A.** > 100 µM (inactive)

**Q.** And the GI50 (786-0)?
**A.** > 100 µM (inactive)

**Q.** What about the GI50 (CCRF-CEM) of the same compound?
**A.** > 100 µM (inactive)

**Q.** `NCC(=O)OCN1C(=O)C2C3C=CC(C2C1=O)C1C2C(=O)N(COC(=O)CN)C(=O)C2C31` (stereo not given) was tested. Which GI50 (CAKI-1) did it give?
**A.** 53.5 µM (inactive)

**Q.** What about the GI50 (DMS-114) of the same compound?
**A.** 20.9 µM (inactive)

**Q.** And the GI50 (M19-MEL)?
**A.** 24.8 µM (inactive)

**Q.** And the GI50 (HOP-18)?
**A.** 25.6 µM (inactive)

**Q.** What about the GI50 (OVCAR-4) of the same compound?
**A.** 20 µM (inactive)

**Q.** And the GI50 (M14)?
**A.** 20.5 µM (inactive)

**Q.** And the GI50 (KM-20L2)?
**A.** 24.3 µM (inactive)

**Q.** What about the GI50 (NCI-H226) of the same compound?
**A.** 50.5 µM (inactive)

**Q.** What about the GI50 (A498) of the same compound?
**A.** > 100 µM (inactive)

**Q.** What about the GI50 (SN12C) of the same compound?
**A.** 23.3 µM (inactive)

**Q.** And the GI50 (UACC-62)?
**A.** 23 µM (inactive)

**Q.** And the GI50 (SF-295)?
**A.** > 100 µM (inactive)

**Q.** And the GI50 (DMS-273)?
**A.** 18.2 µM (inactive)

**Q.** And the GI50 (HL-60)?
**A.** 12.4 µM (inactive)

**Q.** And the GI50 (SK-MEL-2)?
**A.** 19.4 µM (inactive)

**Q.** What about the GI50 (SK-MEL-28) of the same compound?
**A.** 19.1 µM (inactive)

**Q.** What about the GI50 (DLD-1) of the same compound?
**A.** 24.3 µM (inactive)

**Q.** What about the GI50 (SW-620) of the same compound?
**A.** 22.4 µM (inactive)

**Q.** And the GI50 (HT-29)?
**A.** 40.6 µM (inactive)

**Q.** What about the GI50 (U-251) of the same compound?
**A.** 22 µM (inactive)

**Q.** And the GI50 (LOX IMVI)?
**A.** 20 µM (inactive)

**Q.** What about the GI50 (HCT-116) of the same compound?
**A.** 16.9 µM (inactive)

**Q.** What about the GI50 (SNB-75) of the same compound?
**A.** 23.6 µM (inactive)

**Q.** What about the GI50 (XF498) of the same compound?
**A.** 17.9 µM (inactive)

**Q.** What about the GI50 (HCT-15) of the same compound?
**A.** 19.1 µM

**Q.** What about the GI50 (SK-MEL-5) of the same compound?
**A.** 25.5 µM (inactive)

**Q.** What about the GI50 (KM12) of the same compound?
**A.** 22.2 µM (inactive)

**Q.** What about the GI50 (UACC-257) of the same compound?
**A.** 36.3 µM (inactive)

**Q.** What about the GI50 (SNB-78) of the same compound?
**A.** 42 µM (inactive)

**Q.** And the GI50 (SK-OV-3)?
**A.** 76.9 µM (inactive)

**Q.** And the GI50 (MOLT-4)?
**A.** 28.9 µM (inactive)

**Q.** What about the GI50 (NCI-H460) of the same compound?
**A.** 16.6 µM (inactive)

**Q.** And the GI50 (RPMI-8226)?
**A.** 32.1 µM (inactive)

**Q.** What about the GI50 (SF-268) of the same compound?
**A.** 20.9 µM (inactive)

**Q.** What about the GI50 (HOP-92) of the same compound?
**A.** 94 µM (inactive)

**Q.** What about the GI50 (ACHN) of the same compound?
**A.** 24.5 µM (inactive)

**Q.** And the GI50 (LXFL 529)?
**A.** 22.7 µM (inactive)

**Q.** And the GI50 (UO-31)?
**A.** 31.9 µM (inactive)

**Q.** And the GI50 (HOP-62)?
**A.** > 100 µM (inactive)

**Q.** And the GI50 (OVCAR-3)?
**A.** 35.7 µM (inactive)

**Q.** What about the GI50 (NCI-H23) of the same compound?
**A.** 21.1 µM (inactive)

**Q.** And the GI50 (COLO 205)?
**A.** 21.4 µM (inactive)

**Q.** What about the GI50 (NCI-H522) of the same compound?
**A.** 12.5 µM (inactive)

**Q.** And the GI50 (K562)?
**A.** 30.5 µM (inactive)

**Q.** And the GI50 (OVCAR-8)?
**A.** 20.7 µM (inactive)

**Q.** And the GI50 (RXF 393)?
**A.** 20.6 µM (inactive)

**Q.** And the GI50 (SF-539)?
**A.** 30.2 µM (inactive)

**Q.** And the GI50 (IGROV-1)?
**A.** 41.8 µM (inactive)

**Q.** And the GI50 (A549)?
**A.** 30.1 µM (inactive)

**Q.** And the GI50 (SNB-19)?
**A.** 71.3 µM (inactive)

**Q.** And the GI50 (TK-10)?
**A.** 31.3 µM (inactive)

**Q.** And the GI50 (786-0)?
**A.** 22.8 µM (inactive)

**Q.** What about the GI50 (CCRF-CEM) of the same compound?
**A.** 22.9 µM (inactive)
